Test results published in patent US6489469B1, “Method for storing or transporting erythritol solution” (Nikken Chemicals Co., Ltd., priority 1999, dated 2002).

How the values were obtained:
[1] = tested on: Aspergillus niger IFO 6342; assay: Viable Count of Aspergillus niger IFO 6342 in Erythritol Solution; format: cell-based
Protocol: (§1) Erythritol solutions of respective concentrations in the range of from 30 to 60% were prepared. To these were inoculated Staphylococcus aureus IFO 13276, Bacillus subtilis IFO 3134, and Escherichia coli IFO 3972 as bacteria, Candida albicans IFO 1549 and Saccharomyces cerevisiae ATCC 9763 as yeasts, Aspergillus niger IFO 6342, Aspergillus flavus IFO 6343, and Penicillium funiculosum IFO 6345 as fungi, respectively, in a population (concentration) of 10,000 cells/mL or more. After the inoculation, the solutions were stored at 30, 37, 45, 50, or 60° C., respectively, for 56 days and the number of viable cell was determined daily. The determination of the number of viable cell was performed by a method of coating 0.1 mL of appropriately diluted sample cultivation on an agar plate and cultivating and counting the number of viable cell (the number of colony) that grew after the cultivation.

[2] = tested on: Candida albicans IFO 1549; assay: Viable Count of Candida albicans IFO 1549 in Erythritol Solution; format: cell-based
Protocol: as §1

## OC[C@@H](O)[C@@H](O)CO [Erythritol Solution, erythritol]
[1]; 45° C., 30% w/w, Day 0
  The Number of Viable Cell: ≥ 10000 cells/mL
[1]; 45° C., 30% w/w, Day 3
  The Number of Viable Cell: ≥ 10000 cells/mL
[1]; 45° C., 30% w/w, Day 7
  The Number of Viable Cell: ≥ 10000 cells/mL
[1]; 45° C., 30% w/w, Day 14
  The Number of Viable Cell: ≥ 10000 cells/mL
[1]; 45° C., 30% w/w, Day 28
  The Number of Viable Cell: ≥ 10000 cells/mL
[1]; 45° C., 30% w/w, Day 56
  The Number of Viable Cell: 0 cells/mL
[1]; 45° C., 40% w/w, Day 0
  The Number of Viable Cell: ≥ 10000 cells/mL
[1]; 45° C., 40% w/w, Day 3
  The Number of Viable Cell: ≥ 10000 cells/mL
[1]; 45° C., 40% w/w, Day 7
  The Number of Viable Cell: ≥ 10000 cells/mL
[1]; 45° C., 40% w/w, Day 14
  The Number of Viable Cell: ≥ 10000 cells/mL
[1]; 45° C., 40% w/w, Day 28
  The Number of Viable Cell: 0 cells/mL
[1]; 45° C., 40% w/w, Day 56
  The Number of Viable Cell: 0 cells/mL
[1]; 45° C., 50% w/w, Day 0
  The Number of Viable Cell: ≥ 10000 cells/mL
[1]; 45° C., 50% w/w, Day 3
  The Number of Viable Cell: ≥ 10000 cells/mL
[1]; 45° C., 50% w/w, Day 7
  The Number of Viable Cell: ≥ 10000 cells/mL
[1]; 45° C., 50% w/w, Day 14
  The Number of Viable Cell: ≥ 10000 cells/mL
[1]; 45° C., 50% w/w, Day 28
  The Number of Viable Cell: 0 cells/mL
[1]; 45° C., 50% w/w, Day 56
  The Number of Viable Cell: 0 cells/mL
[1]; 50° C., 30% w/w, Day 0
  The Number of Viable Cell: ≥ 10000 cells/mL
[1]; 50° C., 30% w/w, Day 3
  The Number of Viable Cell: 0 cells/mL
[1]; 50° C., 30% w/w, Day 7
  The Number of Viable Cell: 0 cells/mL
[1]; 50° C., 30% w/w, Day 14
  The Number of Viable Cell: 0 cells/mL
[1]; 50° C., 30% w/w, Day 28
  The Number of Viable Cell: 0 cells/mL
[1]; 50° C., 30% w/w, Day 56
  The Number of Viable Cell: 0 cells/mL
[1]; 50° C., 40% w/w, Day 0
  The Number of Viable Cell: ≥ 10000 cells/mL
[1]; 50° C., 40% w/w, Day 3
  The Number of Viable Cell: ≥ 10000 cells/mL
[1]; 50° C., 40% w/w, Day 7
  The Number of Viable Cell: 0 cells/mL
[1]; 50° C., 40% w/w, Day 14
  The Number of Viable Cell: 0 cells/mL
[1]; 50° C., 40% w/w, Day 28
  The Number of Viable Cell: 0 cells/mL
[1]; 50° C., 40% w/w, Day 56
  The Number of Viable Cell: 0 cells/mL
[1]; 50° C., 50% w/w, Day 0
  The Number of Viable Cell: ≥ 10000 cells/mL
[1]; 50° C., 50% w/w, Day 3
  The Number of Viable Cell: ≥ 10000 cells/mL
[1]; 50° C., 50% w/w, Day 7
  The Number of Viable Cell: 0 cells/mL
[1]; 50° C., 50% w/w, Day 14
  The Number of Viable Cell: 0 cells/mL
[1]; 50° C., 50% w/w, Day 28
  The Number of Viable Cell: 0 cells/mL
[1]; 50° C., 50% w/w, Day 56
  The Number of Viable Cell: 0 cells/mL
[1]; 60° C., 30% w/w, Day 0
  The Number of Viable Cell: ≥ 10000 cells/mL
[1]; 60° C., 30% w/w, Day 3
  The Number of Viable Cell: 0 cells/mL
[1]; 60° C., 30% w/w, Day 7
  The Number of Viable Cell: 0 cells/mL
[1]; 60° C., 30% w/w, Day 14
  The Number of Viable Cell: 0 cells/mL
[1]; 60° C., 30% w/w, Day 28
  The Number of Viable Cell: 0 cells/mL
[1]; 60° C., 30% w/w, Day 56
  The Number of Viable Cell: 0 cells/mL
[1]; 60° C., 40% w/w, Day 0
  The Number of Viable Cell: ≥ 10000 cells/mL
[1]; 60° C., 40% w/w, Day 3
  The Number of Viable Cell: 0 cells/mL
[1]; 60° C., 40% w/w, Day 7
  The Number of Viable Cell: 0 cells/mL
[1]; 60° C., 40% w/w, Day 14
  The Number of Viable Cell: 0 cells/mL
[1]; 60° C., 40% w/w, Day 28
  The Number of Viable Cell: 0 cells/mL
[1]; 60° C., 40% w/w, Day 56
  The Number of Viable Cell: 0 cells/mL
[1]; 60° C., 50% w/w, Day 0
  The Number of Viable Cell: ≥ 10000 cells/mL
[1]; 60° C., 50% w/w, Day 3
  The Number of Viable Cell: 0 cells/mL
[1]; 60° C., 50% w/w, Day 7
  The Number of Viable Cell: 0 cells/mL
[1]; 60° C., 50% w/w, Day 14
  The Number of Viable Cell: 0 cells/mL
[1]; 60° C., 50% w/w, Day 28
  The Number of Viable Cell: 0 cells/mL
[1]; 60° C., 50% w/w, Day 56
  The Number of Viable Cell: 0 cells/mL
[1]; 60° C., 60% w/w, Day 0
  The Number of Viable Cell: ≥ 10000 cells/mL
[1]; 60° C., 60% w/w, Day 3
  The Number of Viable Cell: 0 cells/mL
[1]; 60° C., 60% w/w, Day 7
  The Number of Viable Cell: 0 cells/mL
[1]; 60° C., 60% w/w, Day 14
  The Number of Viable Cell: 0 cells/mL
[1]; 60° C., 60% w/w, Day 28
  The Number of Viable Cell: 0 cells/mL
[1]; 60° C., 60% w/w, Day 56
  The Number of Viable Cell: 0 cells/mL
[1]; temperature of 50° C. or more
  growth of the microbes: prevented from growing
  time after which microbes died: 7 days
[2]; 37° C., 30% w/w, Day 0
  The Number of Viable Cell: ≥ 10000 cells/mL
[2]; 37° C., 30% w/w, Day 3
  The Number of Viable Cell: ≥ 10000 cells/mL
[2]; 37° C., 30% w/w, Day 7
  The Number of Viable Cell: ≥ 10000 cells/mL
[2]; 37° C., 30% w/w, Day 14
  The Number of Viable Cell: ≥ 10000 cells/mL
[2]; 37° C., 30% w/w, Day 28
  The Number of Viable Cell: ≥ 10000 cells/mL
[2]; 37° C., 30% w/w, Day 56
  The Number of Viable Cell: ≥ 10000 cells/mL
[2]; 37° C., 40% w/w, Day 0
  The Number of Viable Cell: ≥ 10000 cells/mL
[2]; 37° C., 40% w/w, Day 3
  The Number of Viable Cell: ≥ 10000 cells/mL
[2]; 37° C., 40% w/w, Day 7
  The Number of Viable Cell: ≥ 10000 cells/mL
[2]; 37° C., 40% w/w, Day 14
  The Number of Viable Cell: ≥ 10000 cells/mL
[2]; 37° C., 40% w/w, Day 28
  The Number of Viable Cell: ≥ 10000 cells/mL
[2]; 37° C., 40% w/w, Day 56
  The Number of Viable Cell: ≥ 10000 cells/mL
[2]; 45° C., 30% w/w, Day 0
  The Number of Viable Cell: ≥ 10000 cells/mL
[2]; 45° C., 30% w/w, Day 3
  The Number of Viable Cell: 190 cells/mL
[2]; 45° C., 30% w/w, Day 7
  The Number of Viable Cell: 0 cells/mL
[2]; 45° C., 30% w/w, Day 14
  The Number of Viable Cell: 0 cells/mL
[2]; 45° C., 30% w/w, Day 28
  The Number of Viable Cell: 0 cells/mL
[2]; 45° C., 30% w/w, Day 56
  The Number of Viable Cell: 0 cells/mL
[2]; 45° C., 40% w/w, Day 0
  The Number of Viable Cell: ≥ 10000 cells/mL
[2]; 45° C., 40% w/w, Day 3
  The Number of Viable Cell: 0 cells/mL
[2]; 45° C., 40% w/w, Day 7
  The Number of Viable Cell: 0 cells/mL
[2]; 45° C., 40% w/w, Day 14
  The Number of Viable Cell: 0 cells/mL
[2]; 45° C., 40% w/w, Day 28
  The Number of Viable Cell: 0 cells/mL
[2]; 45° C., 40% w/w, Day 56
  The Number of Viable Cell: 0 cells/mL
[2]; 45° C., 50% w/w, Day 0
  The Number of Viable Cell: ≥ 10000 cells/mL
[2]; 45° C., 50% w/w, Day 3
  The Number of Viable Cell: 0 cells/mL
[2]; 45° C., 50% w/w, Day 7
  The Number of Viable Cell: 0 cells/mL
[2]; 45° C., 50% w/w, Day 14
  The Number of Viable Cell: 0 cells/mL
[2]; 45° C., 50% w/w, Day 28
  The Number of Viable Cell: 0 cells/mL
[2]; 45° C., 50% w/w, Day 56
  The Number of Viable Cell: 0 cells/mL
[2]; 50° C., 30% w/w, Day 0
  The Number of Viable Cell: ≥ 10000 cells/mL
[2]; 50° C., 30% w/w, Day 3
  The Number of Viable Cell: 0 cells/mL
[2]; 50° C., 30% w/w, Day 7
  The Number of Viable Cell: 0 cells/mL
[2]; 50° C., 30% w/w, Day 14
  The Number of Viable Cell: 0 cells/mL
[2]; 50° C., 30% w/w, Day 28
  The Number of Viable Cell: 0 cells/mL
[2]; 50° C., 30% w/w, Day 56
  The Number of Viable Cell: 0 cells/mL
[2]; 50° C., 40% w/w, Day 0
  The Number of Viable Cell: ≥ 10000 cells/mL
[2]; 50° C., 40% w/w, Day 3
  The Number of Viable Cell: 0 cells/mL
[2]; 50° C., 40% w/w, Day 7
  The Number of Viable Cell: 0 cells/mL
[2]; 50° C., 40% w/w, Day 14
  The Number of Viable Cell: 0 cells/mL
[2]; 50° C., 40% w/w, Day 28
  The Number of Viable Cell: 0 cells/mL
[2]; 50° C., 40% w/w, Day 56
  The Number of Viable Cell: 0 cells/mL
[2]; 50° C., 50% w/w, Day 0
  The Number of Viable Cell: ≥ 10000 cells/mL
[2]; 50° C., 50% w/w, Day 3
  The Number of Viable Cell: 0 cells/mL
[2]; 50° C., 50% w/w, Day 7
  The Number of Viable Cell: 0 cells/mL
[2]; 50° C., 50% w/w, Day 14
  The Number of Viable Cell: 0 cells/mL
[2]; 50° C., 50% w/w, Day 28
  The Number of Viable Cell: 0 cells/mL
[2]; 50° C., 50% w/w, Day 56
  The Number of Viable Cell: 0 cells/mL
[2]; temperature of 50° C. or more
  growth of the microbes: prevented from growing
  time after which microbes died: 3 days
